Entries after “also recorded” stand apart in the source; their conditions may differ.
Key:
[1] = background; compared with a therapy session of up to several hours; cited from earlier work
5-HT2A receptors [2] = biological target: T1, 5-HT2A receptors (Mus musculus, UniProt P35363); test: Psilocybin-induced head twitch response in mice, 5-HT2A antagonist given i.v. after psilocybin; assay type: in vivo, C57BL/6J mice; design: widely used to explore the effect of treatments on 5-HT2A receptors in vivo; from tissue; host or cells: whole living male C57BL/6J mice (behavioural read-out); settings: for head-twitch response (cumulative head-twitches): psilocybin 2 mg/kg i.p., monitored until 40 min after agonist dosing; for Result (Psilocybin Combinations tested, summary): summary of Examples 1-17
Source text: (§1) See, Keller and Umbreit, Science, 1956, 124: 723). […] The head-shake response is elicited by a wide variety of known hallucinogens such as LSD, psilocybin, psilocin, N,N-dimethyltryptamine (DMT), and mescaline as well as serotonin-releasing agents and direct 5-HT2 agonists. See, Canal and Morgan, Drug Test Anal., 2012, 4, 556-576 2012. 2,5-dimethoxy-4-iodoamphetamine (DOI) has also been reported to elicit head shakes in rats (see Amt and Hyttel Eur. J. Pharmacol., 1989, 161:45; also see Kennett et al., Br. J. Pharmacol., 1994, 111: 797-802) and head-twitches in mice (see Darmani et al., Pharmacol. Biochem. Behav., 1990, 36: […]), both of which were blocked by administration of the fairly selective 5-HT2A antagonist ketanserin. Later studies have confirmed 5-HT2A receptors are the primary, direct mediators of the response and that the headshake response in rats is essentially the same as head-twitches in mice, at least in regards to similarity in appearance and 5-HT2A receptor dependence. See, Canal and Morgan, Drug Test Anal., 2012, 4, 556-576 2012.
Male C57BL/6J mice (approximately 25 g) was group housed in stock room B20D of the Saretius animal at the University of Reading. Animals was maintained under a 12 h light/dark cycle, at 23° C. with humidity controlled
(§2) At T=−60 min, C57BL/6J mice were individually housed into transparent observation cages with bedding removed and left to habituate. At T=−3 min, mice were placed into heated cages at 40° C. At T=0 h, groups of 3 mice were dosed intraperitoneally with psilocybin (2 mg/kg). Following dosing, mice were replaced into the heated cages and head-twitch responses continuously scored for 7 min. After 7 min, mice were intravenously dosed via the lateral tail vein with either vehicle 1 (saline) or volinanserin 1 mg/kg in 5 mL/kg dosing volumes. Mice were replaced into the observation cages and head twitch behavior were monitored until 40 min after agonist dosing. Cumulative head-twitches were measured every 2 minutes until 40 minutes after agonist dosing.
as §2, with “min. […]” for “min. After 7 min, mice were intravenously dosed via the lateral tail vein with either vehicle 1 (saline) or volinanserin 1 mg/kg in 5 mL/kg dosing volumes.”, “behavior was” for “behavior were”, “Cumulative head-twitch behavior was” for “Cumulative head-twitches were”
as §2, with “min. […]” for “min. After 7 min, mice were intravenously dosed via the lateral tail vein with either vehicle 1 (saline) or volinanserin 1 mg/kg in 5 mL/kg dosing volumes.”, “behavior was” for “behavior were”, “Cumulative head-twitch behavior was” for “Cumulative head-twitches were”
as §2, with “min. […]” for “min. After 7 min, mice were intravenously dosed via the lateral tail vein with either vehicle 1 (saline) or volinanserin 1 mg/kg in 5 mL/kg dosing volumes.”, “behavior was” for “behavior were”, “Cumulative head-twitch behavior was” for “Cumulative head-twitches were”

5-HT2A receptors [3] = biological target: T1, 5-HT2A receptors; test: LSD-induced head twitch response in mice, 5-HT2A antagonist given i.v. after LSD; assay type: in vivo, C57BL/6J mice; design: widely used to explore the effect of treatments on 5-HT2A receptors in vivo; from tissue; host or cells: whole living male C57BL/6J mice (behavioural read-out); settings: for head-twitch response (cumulative head-twitches): LSD 0.32 mg/kg i.p., monitored until 40 min after agonist dosing; for Result (LSD Combinations tested, summary): summary of Examples 1-17, antagonist administered after LSD
Source text: as §1
Male C57BL/6J mice (approximately 25 g) was group housed in stock room B20D of the Saretius animal at the University of Reading. […]
as §2, with “At T=−2” for “At T=−3”, “with LSD (0.32” for “with psilocybin (2”, “for 8” for “for 7”, “After 8” for “After 7”, “Cumulative head-twitch behavior was” for “Cumulative head-twitches were”
At T=−60 min, C57BL/6J mice were individually housed into transparent observation cages with bedding removed and left to habituate. At T=−2 min, mice were placed into heated cages at 40° C. At T=0 h, groups of 3 mice were dosed intraperitoneally with LSD (0.32 mg/kg).

5-HT2A receptors [4] = biological target: T1, 5-HT2A receptors; design: head-twitches in mice (see Darmani et al., Pharmacol. Biochem. Behav., 1990); host or cells: living mice (cited study); settings: mice; 2,5-dimethoxy-4-iodoamphetamine (DOI); cited from earlier work
5-HT2A receptors [5] = biological target: T2, 5-HT2A receptors (Rattus norvegicus, UniProt P14842); settings: rats; 2,5-dimethoxy-4-iodoamphetamine (DOI); cited from earlier work
T2 construct: has also been reported to elicit head shakes in rats; host or cells: living rats (cited studies)

[6] = test system: psilocybin induced head twitches in mice; settings: psilocybin 2 mg/kg i.p.; quetiapine 1 mg/kg i.v. after T=7 minutes; cumulative head twitches until 40 minutes
Method: Mice were dosed intraperitoneally with psilocybin (2 mg/kg) and head-twitch responses were continuously scored for 7 minutes. […] Cumulative head-twitch behavior was measured every 2 minutes until 40 minutes after agonist dosing.

[7] = antagonist 1 mg/kg i.v. after 7 min
[8] = antagonist 4 mg/kg i.v. after 7 min
[9] = antagonist administered after psilocybin
[10] = antagonist 1 mg/kg i.v. after 8 min

T1 sequence (P35363 whole entry): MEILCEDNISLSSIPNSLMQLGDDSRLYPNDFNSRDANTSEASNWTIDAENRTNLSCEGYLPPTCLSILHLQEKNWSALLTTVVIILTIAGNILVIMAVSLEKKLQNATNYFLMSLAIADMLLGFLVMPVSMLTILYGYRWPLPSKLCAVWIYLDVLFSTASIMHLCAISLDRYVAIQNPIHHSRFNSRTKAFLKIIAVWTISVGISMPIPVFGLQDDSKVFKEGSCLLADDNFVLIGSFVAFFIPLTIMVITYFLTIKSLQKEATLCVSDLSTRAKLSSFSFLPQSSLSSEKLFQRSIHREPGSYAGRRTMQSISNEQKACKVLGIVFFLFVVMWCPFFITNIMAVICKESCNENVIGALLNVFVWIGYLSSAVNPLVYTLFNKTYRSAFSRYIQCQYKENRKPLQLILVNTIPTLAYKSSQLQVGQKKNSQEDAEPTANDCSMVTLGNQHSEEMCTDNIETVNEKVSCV
T2 sequence (P14842 whole entry): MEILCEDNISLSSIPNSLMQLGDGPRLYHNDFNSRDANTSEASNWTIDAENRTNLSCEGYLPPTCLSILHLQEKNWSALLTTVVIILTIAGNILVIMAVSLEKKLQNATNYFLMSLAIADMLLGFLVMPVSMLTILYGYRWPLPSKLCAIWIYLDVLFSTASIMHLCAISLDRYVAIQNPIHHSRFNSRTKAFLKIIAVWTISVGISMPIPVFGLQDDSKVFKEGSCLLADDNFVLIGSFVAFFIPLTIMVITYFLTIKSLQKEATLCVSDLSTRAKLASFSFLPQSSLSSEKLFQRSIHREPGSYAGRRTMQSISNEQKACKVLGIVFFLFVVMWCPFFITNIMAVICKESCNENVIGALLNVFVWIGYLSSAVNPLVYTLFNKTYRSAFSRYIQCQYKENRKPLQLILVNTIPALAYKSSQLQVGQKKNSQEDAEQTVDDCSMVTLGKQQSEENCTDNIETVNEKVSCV

## CCN(CC)C(=O)[C@@H]1C=C2c3cccc4[nH]cc(c34)C[C@H]2N(C)C1 [LSD]
[1]
  duration of effects: 12 h

## O=c1[nH]c2ccccc2n1CCN1CCN(c2cccc(C(F)(F)F)c2)CC1 [flibanserin]
5-HT2A receptors [2]; [7]
  head-twitch response (cumulative head-twitches): partially suppressed
5-HT2A receptors [2]; [8]
  head-twitch response (cumulative head-twitches): partially suppressed
5-HT2A receptors [2]; [9]
  Result (Psilocybin Combinations tested, summary): partial suppression
5-HT2A receptors [2]; antagonist administered after psilocybin, listed as Flibanserin
  Result (Psilocybin Combinations tested, summary): Partial suppression of head twitch
5-HT2A receptors [3]; [10]
  head-twitch response (cumulative head-twitches): partially suppressed
5-HT2A receptors [3]; antagonist 4 mg/kg i.v. after 8 min
  head-twitch response (cumulative head-twitches): partially suppressed
5-HT2A receptors [3]
  Result (LSD Combinations tested, summary): partial suppression
5-HT2A receptors [3]; listed as Flibanserin
  Result (LSD Combinations tested, summary): Partial suppression of head twitch

## O=C(c1ccc(F)cc1)C1CCN(CCn2c(=O)[nH]c3ccccc3c2=O)CC1 [ketanserin]
5-HT2A receptors [4]
  DOI-elicited head-twitches: blocked
5-HT2A receptors [5]
  DOI-elicited head shakes: blocked
5-HT2A receptors [2]; antagonist 2 mg/kg i.v. after 7 min
  head-twitch response (cumulative head-twitches): completely suppressed
5-HT2A receptors [3]; antagonist 2 mg/kg i.v. after 8 min
  head-twitch response (cumulative head-twitches): completely suppressed

## COc1ccc(NC(=O)Nc2ccc(F)cc2F)cc1-c1c(Br)cnn1C [nelotanserin]
5-HT2A receptors [2]; [7]
  head-twitch response (cumulative head-twitches): partially suppressed
5-HT2A receptors [2]; [8]
  head-twitch response (cumulative head-twitches): completely suppressed; also recorded: completed suppressed
5-HT2A receptors [2]; [9]
  Result (Psilocybin Combinations tested, summary): partial suppression
5-HT2A receptors [2]; antagonist administered after psilocybin, listed as Nelotanserin
  Result (Psilocybin Combinations tested, summary): Partial suppression of head twitch,
5-HT2A receptors [2]; at high dose
  Result (Psilocybin Combinations tested, summary): full suppression at high dose
5-HT2A receptors [3]; [10]
  head-twitch response (cumulative head-twitches): partially suppressed
5-HT2A receptors [3]
  Result (LSD Combinations tested, summary): partial suppression
5-HT2A receptors [3]; listed as Nelotanserin
  Result (LSD Combinations tested, summary): Partial suppression of head twitch

## N#Cc1c[nH]c2c(C(=O)N3CCN(CCc4ccc(F)cc4)CC3)cccc12 [pruvanserin]
5-HT2A receptors [2]; [7]
  head-twitch response (cumulative head-twitches): completely suppressed
5-HT2A receptors [2]; [9]
  Result (Psilocybin Combinations tested, summary): full ending
5-HT2A receptors [2]; antagonist administered after psilocybin, listed as Pruvanserin
  Result (Psilocybin Combinations tested, summary): Full suppression of head twitch
5-HT2A receptors [3]; [10]
  head-twitch response (cumulative head-twitches): completely suppressed
5-HT2A receptors [3]
  Result (LSD Combinations tested, summary): full suppression
5-HT2A receptors [3]; listed as Pruvanserin
  Result (LSD Combinations tested, summary): Full suppression of head twitch

## OCCOCCN1CCN(C2=Nc3ccccc3Sc3ccccc32)CC1 [quetiapine]
[6]
  head-twitch response: completely suppressed

## Cc1nc2sccn2c(=O)c1CCN1CCC(=C(c2ccc(F)cc2)c2ccc(F)cc2)CC1 [ritanserin]
5-HT2A receptors [2]; [7]
  head-twitch response (cumulative head-twitches): completely suppressed
5-HT2A receptors [2]; [9]
  Result (Psilocybin Combinations tested, summary): full ending
5-HT2A receptors [2]; antagonist administered after psilocybin, listed as Ritanserin
  Result (Psilocybin Combinations tested, summary): Full suppression of head twitch
5-HT2A receptors [3]; [10]
  head-twitch response (cumulative head-twitches): partially suppressed
5-HT2A receptors [3]
  Result (LSD Combinations tested, summary): full suppression
5-HT2A receptors [3]; listed as Ritanserin
  Result (LSD Combinations tested, summary): Full suppression of head twitch

## COc1cccc([C@H](O)C2CCN(CCc3ccc(F)cc3)CC2)c1OC [volinanserin]
5-HT2A receptors [2]; [7]
  head-twitch response (cumulative head-twitches): completely suppressed
5-HT2A receptors [2]; [9]
  Result (Psilocybin Combinations tested, summary): full ending
5-HT2A receptors [2]; antagonist administered after psilocybin, listed as Volinanserin
  Result (Psilocybin Combinations tested, summary): Full suppression of head twitch
5-HT2A receptors [3]; antagonist 1 mg/kg i.v. after 5 min
  head-twitch response (cumulative head-twitches): completely suppressed
5-HT2A receptors [3]; [10]
  head-twitch response (cumulative head-twitches): completely suppressed
5-HT2A receptors [3]; antagonist 1 mg/kg i.v. after 10 min
  head-twitch response (cumulative head-twitches): completely suppressed
5-HT2A receptors [3]
  Result (LSD Combinations tested, summary): full suppression
